Here are results for 15 compounds from patent publication US20260285853A1, “COMPOUNDS AND METHODS FOR MODULATING SPLICING” (REMIX THERAPEUTICS INC., priority 2023, published 2026).

Where a name gives a salt, the structure may show the parent alone. A value given as a limit tells only on which side of the number the result lay.

Holding throughout (format): cell-based
Test [1] relates to SH-SY5Y (human neuroblastoma) cells. Put plainly: Cell viability, Cell Titer Glo 2.0 assay. The note with it: read-out: Viability SHSY5Y.3 GI50. The method in brief:
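SH-SY5Y cells were exposed to serially diluted compounds in IMDM with 10% FBS and 0.1% DMSO for 72 hours at 37° C., 5% CO2. Viability was measured by CellTiter-Glo 2.0 luminescence, with medium-only wells as blank.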

Test [2] concerns MYB mRNA. Put plainly: Gene panel canonical junction qPCR assay, decrease in CJ mRNA, Table 3. The note with it: decrease in canonical junction (CJ) mRNA, gene panel qPCR, Table 3. In outline: (§1)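 Canonical exon-junction (CJ) transcript measured by 5′ nuclease RT-qPCR, normalized to GAPDH, GUSB or PPIA and to DMSO control (2^(−ΔΔCt)). A673 or K562 cells treated 24 h at 37° C with an 11-point 3-fold dilution series, top 10 uM, DMSO ≤0.25%. IC50 from 4-parameter logistic fit of percentage CJ decrease.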

Test [3] deals with HTT mRNA. The description is as above. The note with it: decrease in canonical junction (CJ) mRNA, gene panel qPCR, Table 3. In outline: as §1
For orientation: Real-time PCR tracks product formation cycle by cycle.

For test [4], the system named is MYB mRNA. Put plainly: Splicing RT-qPCR assay (THP), Table 2A. Particulars: Table 2A (THP); for AC50: AJ mRNA increase, read-out: MYB AJ (increase in alternative junction mRNA, AC50); for IC50: CJ mRNA decrease, read-out: MYB CJ (decrease in canonical junction mRNA, IC50).
The test system of test [5] is HTT mRNA. Description: Splicing RT-qPCR assay (THP), Table 2A. The note with it: Table 2A (THP); for AC50: AJ mRNA increase, read-out: HTT AJ (increase in alternative junction mRNA, AC50); for IC50: CJ mRNA decrease, read-out: HTT CJ (decrease in canonical junction mRNA, IC50).

For `CCNC1CCN(c2cc(F)c(C(=O)Nc3cn4cc(CC5CC5)nc4c(F)c3OC)c3nn(C)cc23)CC1` [Compound 336, N-[2-(cyclopropyl-methyl)-8-fluoro-7-methoxyimidazo-[1,2-a]pyridin-6-yl]-4-[4-(ethylamino)-1-piperidyl]-6-fluoro-2-methyl-indazole-7-carboxamide], the GI50 (as a rule, the concentration that inhibits growth by half) in test [1] was more than 10000 nM. In addition, the IC50 in the test on MYB mRNA [2], with HTT mRNA [3], in the test with MYB mRNA [4] and in the test on HTT mRNA [5] was more than 10000 nM each time. Also, the AC50 with MYB mRNA [4] and with HTT mRNA [5] was more than 10000 nM each time.
`CCNC1CCN(c2ccc(C(=O)Nc3cn4cc(CO)nc(C)c4n3)c3nn(C)cc23)CC1` [Compound 337, 4-(4-(ethylamino)piperidin-1-yl)-N-(6-(hydroxymethyl)-8-methylimidazo[1,2-a]pyrazin-2-yl)-2-methyl-2H-indazole-7-carboxamide 2,2,2-trifluoroacetate]: in test [1], the GI50 is more than 10000 nM. Moreover, the IC50 (commonly the point on the concentration scale where inhibition reaches its midpoint) was 1000 to 10000 nM with MYB mRNA [2], more than 10000 nM with HTT mRNA [3], 1000 to 10000 nM with MYB mRNA [4] and more than 10000 nM in the test with HTT mRNA [5]. Moreover, the AC50 (usually the concentration at which the activity in the assay is half-maximal) in the test on MYB mRNA [4] was 1000 to 10000 nM; with HTT mRNA [5], more than 10000 nM.
On to `CCNC1CCN(c2ccc(C(=O)Nc3cc(Cc4ccccc4)c4nc(C)cn4c3)c3nn(C)cc23)CC1` [Compound 338, N-(8-benzyl-2-methylimidazo-[1,2-a]pyridin-6-yl)-4-[4-(ethylamino)-1-piperidyl]-2-methyl-indazole-7-carboxamide], for which the 50% growth inhibitory concentration (GI50) in test [1] was 100 to 1000 nM. Further, the IC50 in the test on MYB mRNA [2] is less than 100 nM; in the test with HTT mRNA [3], 1000 to 10000 nM; in the test with MYB mRNA [4], less than 100 nM; in the test with HTT mRNA [5], 1000 to 10000 nM. In addition, the AC50 in the test with MYB mRNA [4] was less than 100 nM; in the test on HTT mRNA [5], 1000 to 10000 nM.
Take `CCNC1CCN(c2ccc(C(=O)Nc3cc(CC(=O)O)c4nc(C)cn4c3)c3nn(C)cc23)CC1` [Compound 339, 2-[6-[[4-[4-(ethylamino)-1-piperidyl]-2-methyl-indazole-7-carbonyl]amino]-2-methyl-imidazo[1,2-a]-pyridin-8-yl]acetic acid]: the concentration for 50% growth inhibition (GI50) in test [1] lay in the range of 100 to 1000 nM. Moreover, the concentration for half-maximal inhibition (IC50) with MYB mRNA [2], with HTT mRNA [3], with MYB mRNA [4] and with HTT mRNA [5] was 100 to 1000 nM each time. Besides, the AC50 with MYB mRNA [4] and in the test on HTT mRNA [5] was 100 to 1000 nM each time.
Take `CCNC1CCN(c2ccc(C(=O)Nc3cc(CC(N)=O)c4nc(C)cn4c3)c3nn(C)cc23)CC1` [Compound 340, N-[8-(2-amino-2-oxo-ethyl)-2-methyl-imidazo[1,2-a]pyridin-6-yl]-4-[4-(ethylamino)-1-piperidyl]-2-methyl-indazole-7-carboxamide]: the 50% growth inhibitory concentration (GI50) in test [1] is more than 10000 nM. Also, the half-inhibitory concentration (IC50) in the test with MYB mRNA [2], in the test with HTT mRNA [3], in the test with MYB mRNA [4] and in the test with HTT mRNA [5] was more than 10000 nM each time. In addition, the half-maximal activity concentration (AC50) in the test with MYB mRNA [4] and in the test on HTT mRNA [5] was more than 10000 nM in each case.
As for `CCNC1CCN(c2ccc(C(=O)Nc3cc(CC(=O)NC)c4nc(C)cn4c3)c3nn(C)cc23)CC1` [Compound 341, 4-(4-(ethylamino)piperidin-1-yl)-2-methyl-N-(2-methyl-8-(2-(methylamino)-2-oxoethyl)imidazo[1,2-a]-pyridin-6-yl)-2H-indazole-7-carboxamide bis(2,2,2-trifluoroacetate)], the 50% growth inhibitory concentration (GI50) in test [1] was more than 10000 nM. Further, the IC50 with MYB mRNA [2] was more than 10000 nM; in the test with HTT mRNA [3], 1000 to 10000 nM; in the test with MYB mRNA [4], more than 10000 nM; in the test on HTT mRNA [5] it was 1000 to 10000 nM. For the same compound, the AC50 was 1000 to 10000 nM with MYB mRNA [4] and more than 10000 nM in the test on HTT mRNA [5].
`CNC1CCN(c2cc(F)c(C(=O)Nc3cn4cc(C)nc(C)c4n3)c3nn(C)cc23)CC1` [Compound 342, N-(6,8-dimethylimidazo[1,2-a]pyrazin-2-yl)-6-fluoro-2-methyl-4-[4-(methylamino)-1-piperidyl]-indazole-7-carbox-amide]: the GI50 in test [1] was in the range of 1000 to 10000 nM. In addition, the IC50 is less than 100 nM in the test on MYB mRNA [2], 1000 to 10000 nM with HTT mRNA [3], less than 100 nM in the test with MYB mRNA [4] and 1000 to 10000 nM in the test on HTT mRNA [5]. The results for the half-maximal activity concentration (AC50) with MYB mRNA [4] and in the test on HTT mRNA [5] were less than 100 nM and 1000 to 10000 nM, respectively.
For the compound `CCNC1CCN(c2cc(F)c(C(=O)Nc3cn4cc(C)nc4c(F)c3OCC)c3nn(C)cc23)CC1` [Compound 343, N-(7-ethoxy-8-fluoro-2-methylimidazo [1,2-a]pyridin-6-yl)-4-(4-(ethylamino)piperidin-1-yl)-6-fluoro-2-methyl-2H-indazole-7-carboxamide hydrochloride], in test [1], the GI50 is less than 100 nM. Besides, the 50% inhibitory concentration (IC50) in the test on MYB mRNA [2], with HTT mRNA [3], in the test on MYB mRNA [4] and in the test with HTT mRNA [5] was less than 100 nM throughout. Also, the concentration at half-maximal activity (AC50) in the test on MYB mRNA [4] and in the test on HTT mRNA [5] was less than 100 nM throughout.
In the case of `CCNC1CCN(c2cc(F)c(C(=O)Nc3cc4c(C)nc(C)cn4c3)c3nn(C)cc23)CC1` [Compound 344, N-(1,3-dimethylpyrrolo[1,2-a]-pyrazin-7-yl)-4-[4-(ethylamino)-1-piperidyl]-6-fluoro-2-methyl-indazole-7-carboxamide], the GI50 in test [1] lay in the range of 1000 to 10000 nM. The IC50 in the test with MYB mRNA [2] is 100 to 1000 nM; in the test on HTT mRNA [3], more than 10000 nM; in the test with MYB mRNA [4], 100 to 1000 nM; in the test with HTT mRNA [5], more than 10000 nM. Besides, the AC50 was 100 to 1000 nM in the test on MYB mRNA [4] and more than 10000 nM in the test with HTT mRNA [5].
`CCNC1CCN(c2ccc(C(=O)Nc3cc4c(C)nc(C)cn4c3)c3nn(C)cc23)CC1` [Compound 345, N-(1,3-dimethylpyrrolo[1,2-a]pyrazin-7-yl)-4-[4-(ethylamino)-1-piperidyl]-2-methyl-indazole-7-carboxamide]: the concentration for 50% growth inhibition (GI50) in test [1] was 1000 to 10000 nM. The IC50 in the test on MYB mRNA [2] is 1000 to 10000 nM; in the test with HTT mRNA [3], more than 10000 nM; in the test on MYB mRNA [4] it was 1000 to 10000 nM; in the test with HTT mRNA [5], more than 10000 nM. In addition, the AC50 in the test on MYB mRNA [4] and in the test with HTT mRNA [5] was more than 10000 nM in each case.
On to `CCNC1CCN(c2cc(F)c(C(=O)Nc3cn4cc(C5CC5)nc(C)c4n3)c3nn(C)cc23)CC1` [Compound 346, N-(6-cyclopropyl-8-methyl-imidazo[1,2-a]pyrazin-2-yl)-4-(4-(ethylamino)-piperidin-1-yl)-6-fluoro-2-methyl-2H-indazole-7-carboxamide bis(2,2,2-trifluoroacetate)], for which, in test [1], the GI50 was 1000 to 10000 nM. The IC50 in the test on MYB mRNA [2], in the test with HTT mRNA [3], in the test on MYB mRNA [4] and with HTT mRNA [5] was more than 10000 nM in each case. In addition, the AC50 in the test on MYB mRNA [4] and in the test with HTT mRNA [5] was more than 10000 nM in each case.
In the case of `Cc1cn2cc(NC(=O)c3c(F)cc(N4CCC(N)CC4)c4cn(C)nc34)nc2c(C)n1` [Compound 347, 4-(4-aminopiperidin-1-yl)-N-(6,8-dimethylimidazo[1,2-a]pyrazin-2-yl)-6-fluoro-2-methyl-2H-indazole-7-carboxamide 2,2,2-trifluoroacetate], the concentration for 50% growth inhibition (GI50) in test [1] was 1000 to 10000 nM. In addition, the IC50 in the test on MYB mRNA [2] is less than 100 nM; with HTT mRNA [3], 1000 to 10000 nM; in the test on MYB mRNA [4] it was less than 100 nM; with HTT mRNA [5] it was 1000 to 10000 nM. The concentration at half-maximal activity (AC50) is less than 100 nM in the test with MYB mRNA [4] and 1000 to 10000 nM in the test on HTT mRNA [5].
With `CCNC1CCN(c2cc(Cl)c(C(=O)Nc3cn4cc(C)nc(C)c4n3)c3nn(C)cc23)CC1` [Compound 348, 6-chloro-N-(6,8-dimethylimidazo-[1,2-a]pyrazin-2-yl)-4-[4-(ethylamino)-1-piperidyl]-2-methyl-indazole-7-carboxamide], the 50% growth inhibitory concentration (GI50) in test [1] was in the range of 1000 to 10000 nM. In addition, the IC50 in the test on MYB mRNA [2] was 1000 to 10000 nM; with HTT mRNA [3], more than 10000 nM; with MYB mRNA [4], 1000 to 10000 nM; in the test on HTT mRNA [5], more than 10000 nM. The AC50 in the test on MYB mRNA [4] was 100 to 1000 nM; in the test with HTT mRNA [5], more than 10000 nM.
Take `Cc1cn2cc(NC(=O)c3c(F)cc(N4CCC(NC5CCC5)CC4)c4cn(C)nc34)nc2c(C)n1` [Compound 349, 4-[4-(cyclobutylamino)-1-piperid-yl]-N-(6,8-dimethyl-imidazo [1,2-a]-pyrazin-2-yl)-6-fluoro-2-methyl-indazole-7-carbox-amide]: in test [1], the GI50 was in the range of 100 to 1000 nM. In addition, the 50% inhibitory concentration (IC50) in the test with MYB mRNA [2] is less than 100 nM; with HTT mRNA [3] it was more than 10000 nM; with MYB mRNA [4] it was less than 100 nM; with HTT mRNA [5], more than 10000 nM. Also, the AC50 is less than 100 nM in the test with MYB mRNA [4] and more than 10000 nM with HTT mRNA [5].
As for `CCNC1CCN(c2ccc(C(=O)Nc3cn4cc(CF)nc(C)c4n3)c3nn(C)cc23)CC1` [Compound 350, 4-[4-(ethylamino)-1-piperidyl]-N-[6-(fluoromethyl)-8-methyl-imidazo[1,2-a]pyrazin-2-yl]-2-methyl-indazole-7-carboxamide 2,2,2-trifluoroacetic acid], in test [1], the GI50 lay within 1000 to 10000 nM. For the same compound, the IC50 in the test on MYB mRNA [2] was 100 to 1000 nM; in the test on HTT mRNA [3], more than 10000 nM; in the test on MYB mRNA [4], 100 to 1000 nM; in the test on HTT mRNA [5] it was more than 10000 nM. In addition, the AC50 is 100 to 1000 nM with MYB mRNA [4] and more than 10000 nM in the test on HTT mRNA [5].
